“Also recorded” adds a separate entry of the source.
Tests used:
ES2 cells = assay: MTS IC50 dosage calculation with BMS-833923; type: cell-based; settings: Homo sapiens, ES-2; ES2 monolayer, MTS up to 72 hrs
Protocol: (§1) Ovarian cancer cells were seeded at a density of 4,000 cells/well in 96 well plates. The following day, fresh medium was added to each well and they were treated with BMS-833923 at a dose-escalation at the following doses 0, 0.1, 0.25, 0.5, 1, 2, 5, 10, and 20 μM. These cells were kept at 37° C. in a humidified 5% CO2 atmosphere. Every 24 hours, 20 μl/well of MTS reagent were added in 96 well plates and stored in 37° C. incubator for at least 3 hours followed by absorbance reading at 490 nm. The assay was carried out up to 72 hrs to obtain the IC50 concentrations of each agent.
(§2) IC50 dosage determinations were performed as described above. […] BMS-833923 IC50 doses were used for all related experiments for specific ovarian cancer cell lines.

OV90 cells = assay: MTS IC50 dosage calculation with BMS-833923; type: cell-based; settings: Homo sapiens, OV-90; OV90 monolayer, MTS up to 72 hrs
Protocol: as §1, §2

SKOV3 cells [1] = assay: MTS IC50 dosage calculation with BMS-833923; type: cell-based; settings: Homo sapiens, SK-OV-3; SKOV3 monolayer, MTS up to 72 hrs
Protocol: as §1, §2

TOV112D cells = assay: MTS IC50 dosage calculation with BMS-833923; type: cell-based; settings: Homo sapiens; TOV112D monolayer, MTS up to 72 hrs
Protocol: as §1, §2

GLI1 = assay: Localization of Gli1 by immunofluorescent staining in SKOV3 cells; type: cell-based; settings: SKOV3, 24 hours treatment
Protocol: Considering intranuclear Gli1 confers an activated Hh pathway, SKOV3 cells were evaluated for Gli1 location after BMS-833923 treatment and compared to control (no treatment). Cells were grown on Poly-L-Lysine coated Glass Coverslips (BD Bioscience) for overnight, then incubated with 5 μM BMS-833923 for 24 hours, respectively, fixed in 4% paraformaldehyde for 15 minutes at room temperature, washed with PBS and permeabilized with 0.25% Triton X-100 (Sigma) for 10 minutes. Primary antibody (Anti-human Gli1 antibody, Santa Cruz Biotechnology, Inc.) incubation followed for overnight at 4° C. After washing thoroughly with PBS, cells were further probed with secondary antibody (anti-rabbit IgG-FITC, Sigma) for one hour at room temperature. Nuclei were counterstained with diluted DAPI (Sigma) for 3 minutes before mounting and analyzing with microscope.
SKOV3 cells were treated with 2.5 μBMS-833923 and the cellular location of Gli1 determined at various times using immunofluorescence. Immunofluorescence analysis was performed as described above. In untreated control cell, Gli1 is concentrated in the nucleus at 24 hrs, indicating an activated Hh pathway. […] Both indicating restriction of Gli1 from the nucleus and inhibition of Hh pathway.

SKOV3 cells [2] = assay: MTS cell survival with BMS-833923 plus chemotherapy, Calcusyn combination index; type: cell-based
Protocol: An MTS in vitro assay was performed using chemotherapy agents commonly used for ovarian cancer (carboplatin, paclitaxel, gemcitabine, topotecan and liposomal doxorubicin) with or without BMS-833923. Ovarian cancer cells ES2, SKOV3, OV90 and TOV112D were seeded at a density of 4,000 cells/well in 96-well tissue culture plates. The following day, fresh medium was added to each well and treated with IC50 concentrations of BMS-833923 as well as the aforementioned chemotherapies and kept at 37° C. in a humidified 5% CO2 atmosphere. Every 24 hr, 20 μl/well of MTS reagent were added in 96 well plates and stored in 37° C. incubator for about 3 hr followed by absorbance reading at 490 nm. The assay was carried out up to 72 hrs at various concentrations described herein.
With a cross-diagonal multidrug treatment design, the combination index (CI) was calculated to determine mathematical synergy using the median effect method per Calcusyn software (Biosoft, Ferguson, Mo.). This software utilizes multiple drug dose-effect calculations using the Median Effect methods (Chou T. C., et al., Trends Pharmacol. Sci. 4, 450-454). […] The fraction of cells affected (Fa) by carboplatin and BMS-833923 was used to calculate dose response curves and the CI. Statistically Calcusyn quantifies phenomena such as synergism vs. additive effects as well as inhibition (antagonism). Calcusyn software defines synergy as a CI value<1 with the extent of synergism stratified as follows: Possible Synergy: 1.0-0.91; Moderate Synergy: […]; and Clear Synergy: 0.7-0.3. A CI=1 may be indicative of additivity; a CI>1 may be indicative of antagonism.
Combination indices were calculated to determine mathematical synergy using the median effect method per Calcusyn software (Biosoft, Ferguson, Mo.) as described above. Monolayers of SKOV3 cells were contacted with various chemotherapeutic agents, and BMS-833923 in combination with various chemotherapeutic agents. The chemotherapeutic agents included Carboplatin, Taxol™, Gemzar™, Topotecan (Hycamtim™), and Doxil™. The percentage survival of the contacted SKOV3 cells was measured over 72 hours. Synergistic effects were calculated statistically using Calcusyn™ Software. A combination index (CI) less than 1 indicates synergy; a CI equal to 1 indicates additivity; a CI greater than 1 indicated antagonism.
Combination indices were calculated to determine mathematical synergy using the median effect method per Calcusyn software (Biosoft, Ferguson, Mo.) as described above. […] Per prior definitions this represents Clear Synergy defined as CI<0.7. This level of synergy would result in a 2- to 14-fold reduction of carboplatin dose required with the addition of BMS-833923. (Table 5 and FIG. 9).
The dose reduction index (DRI) was determined for experimental values using the Calcusyn software package, with the relative CI and the fraction affected to determine the relative reduction in a dose to achieve similar effects with a single agent (Table 6).

A2780/CP70 cells = assay: Carboplatin IC50 with and without BMS-833923 in platinum resistant cell line; type: cell-based; settings: A2780/CP70, addition of BMS-833923 at 5 μM
Protocol: Considering the synergy described above and that the Hedgehog pathway is associated with cancer stem cell properties. In the effect of BMS-833923 plus carboplatin in two isogenic ovarian cancer cell lines specifically designed to evaluate platinum resistance mechanisms: A2780 (platinum sensitive) & A2780/CP70 (platinum resistant). Each cell line was evaluated to determine the IC50 dose of carboplatin to ensure a discernable difference in platinum treatment could be determined (FIG. 11A). The A2780/CP70 cell line required a 4-fold increase in carboplatin to reach IC50 (A2780/CP70=400 μM; A2780=100 μM). […] (FIG. 11B and FIG. 11C).

[3] = MTD for combination therapy; type: in vivo; settings: in vivo; BMS-833923 + carboplatin given together; previously demonstrated
From the text: Treatment with BMS-833923 appeared to have little effect on the growth of A2780 xenografts in vivo.

For `CNCc1ccc(C)c(NC(=O)c2ccc(Nc3nc(-c4ccccc4)c4ccccc4n3)cc2)c1` [BMS-833923, N-{2-methyl-5-[(methylamino)methyl]phenyl}-4-[(4-phenylquinazolin-2-yl)amino]benzamide], the IC50 (ES2 cells) was 4 µM, the IC50 (OV90 cells) was 4 µM and the IC50 (SKOV3 cells [1]) was 7.5 µM. The IC50 (TOV112D cells) was 5 µM, the “cellular location of Gli1” value (GLI1) was “near complete exclusion of intranuclear GLl1; also recorded: Gli1 being excluded from the nucleus” and the “BMS-833923 DRI” value (SKOV3 cells [2]; fraction affected 16.6%) was 2.314. The “BMS-833923 single agent dose to achieve the fraction affected” value (SKOV3 cells [2]; fraction affected 16.6%) was 9.2573 µM, the “BMS-833923 DRI” value (SKOV3 cells [2]; fraction affected 29.1%) was 3.223 and the “BMS-833923 single agent dose to achieve the fraction affected” value (SKOV3 cells [2]; fraction affected 29.1%) was 12.8916 µM. The “BMS-833923 DRI” value (SKOV3 cells [2]; fraction affected 38.4%) was 3.120, the “BMS-833923 single agent dose to achieve the fraction affected” value (SKOV3 cells [2]; fraction affected 38.4%) was 15.6024 µM and the “BMS-833923 DRI” value (SKOV3 cells [2]; fraction affected 41.8%) was 3.330. The “BMS-833923 single agent dose to achieve the fraction affected” value (SKOV3 cells [2]; fraction affected 41.8%) was 16.6516 µM, the “reduction of platinum needed to achieve the same cell death” value (A2780/CP70 cells) was 10 fold and the MTD [3] was 100 mg/kg.
